Patent US20230202975A1 (Recordati Industria Chimica e Farmaceutica S.p.A., priority 2021, published 2023)

How the values were obtained:
Type in all cases: physicochemical
[1] = Bulk density and tapped density (Ph. Eur. 2.9.34), Hausner ratio; settings: average of three samples, after drying under vacuum
Experimental: Bulk density and Tapped density: were measured according to the method of pharmacopoeia (Ph. Eur. 2.9.34). 100 g of sample was weighed and then placed in the test tube, noting the apparent volume without any type of treatment to the sample. Afterwards, 10, 500 and 1250 taps are made using the automatic volumeter (Model: Schleuniger JV2000, Equipment code: CE9), noting the apparent volumes obtained in these three tests. In the event that the difference between the volume obtained for the 500 and 1250 taps was greater than 2 ml, the operation was repeated in increments of 1250 taps until the difference within measurements is less than or equal to 2 ml. For each batch the test was carried out in duplicate.
The bulk density and tapped density were calculated according to the following equations: […]
where m is the amount of sample weighed expressed in grams and V0 is the apparent uncompacted volume expressed in milliliters. Tapped density:
Another parameter relevant for evaluating powder flowability is the Hausner ratio namely the ratio between tapped and bulk densities. Generally, a Hausner ratio of higher than 1.50 indicates a very poor flowability (Powder properties in food production systems, Handbook of Food Powders, Ed.: Bhesh Bhandari, Nidhi Bansal, Min Zhang, Pierre Schuck, Woodhead Publishing, 2013, chapter 12, page 298).

[2] = Particle size distribution (laser particle size analyser, Ph. Eur. 2.9.31)
Experimental: Particle size distribution was evaluated in line with European Pharmacopeia 2.9.31 with the instrument and according to sample preparation and test conditions reported in the following Table 3: […]

[3] = pH of aqueous solution (potentiometric); settings: 100 mg of sample dissolved in 10 ml of water
Experimental: Keys: ^1 pH was determined potentiometncally on a solution of 100 mg of sample dissolved in 10 ml of water; HPLC purity is expressed as area percentage (area of the peak/total area×100); DMT: 2,2-dimethylthiazolidine.

NCCS.O=C(O)C(O)C(O)C(=O)O (stereo not shown) [Example 10A, Cysteamine Bitartrate]
Bulk density ([1]; listed as Cysteamine Bitartrate crystallized according to the process of the present inven): 0.301 g/mL
Bulk density ([1]; listed as Ex. 10A): 0.301 g/mL
Tapped density ([1]; listed as Ex. 10A): 0.423 g/mL

NCCS.O=C(O)C(O)C(O)C(=O)O (stereo not shown) [Example 10B, Cysteamine Bitartrate, reference compound]
Bulk density ([1]; listed as Cysteamine Bitartrate crystallized according to the prior art process (direct ad)): 0.279 g/mL
Bulk density ([1]; listed as Ex. 10B): 0.279 g/mL
Tapped density ([1]; listed as Ex. 10B): 0.442 g/mL

NCCS.O=C(O)C(O)C(O)C(=O)O (stereo not shown) [Example C1, Cysteamine Bitartrate]
Particle Size, compliance with specification D50 <150 mic [2]: ~65%
Particle Size, compliance with specification D90 <450 mic [2]: (100%)

NCCS.O=C(O)C(O)C(O)C(=O)O (stereo not shown) [Example C2, Cysteamine Bitartrate]
Particle Size, compliance with specification D50 <150 mic [2]: ~55%
Particle Size, compliance with specification D90 <450 mic [2]: (100%)

NCCS.O=C(O)C(O)C(O)C(=O)O (stereo not shown) [Example C3, Cysteamine Bitartrate]
Particle Size, compliance with specification D50 <150 mic [2]: ~53%
Particle Size, compliance with specification D90 <450 mic [2]: (100%)

NCCS.O=C(O)C(O)C(O)C(=O)O (stereo not shown) [Example R1, Cysteamine Bitartrate]
Particle Size, compliance with specification D50 <150 mic [2]: (100%)
Particle Size, compliance with specification D90 <450 mic [2]: (100%)

NCCS.O=C(O)C(O)C(O)C(=O)O (stereo not shown) [Example R2, Cysteamine Bitartrate]
Particle Size, compliance with specification D50 <150 mic [2]: (100%)
Particle Size, compliance with specification D90 <450 mic [2]: (100%)

NCCS.O=C(O)C(O)C(O)C(=O)O (stereo not shown) [Example R3, Cysteamine Bitartrate]
Particle Size, compliance with specification D50 <150 mic [2]: (100%)
Particle Size, compliance with specification D90 <450 mic [2]: (100%)

Cysteamine Bitartrate [Example 2]
pH [3]: 3.53
